What was measured:
human islets = experiment: apoptosis of human islets incubated in high glucose; assay type: cell-based; conditions: co-incubated with compound vs not co-incubated
Text: Another potential way to intervene in the destruction of beta-cells in the development of Type 1 diabetes is by treatment with compounds that inhibit insulin secretion, thereby inducing beta-cell rest.

beta-cells = conditions: 3 months treatment; cited from earlier work

| Structure (SMILES) | apoptosis, or programmed cell death, of human islets (human islets) | residual C-peptide, a marker of beta-cell function (beta-cells) |
| --- | --- | --- |
| CC1(NC2=NS(=O)(=O)c3sc(Cl)cc3N2)CC1 [6-chloro-3-(1-methylcyclopropyl)amino-4H-thieno[3,2-e]-1,2,4-thiadiazine 1,1-dioxide] | significantly less apoptosis |  |
| CC1=NS(=O)(=O)c2cc(Cl)ccc2N1 [diazoxide] |  | preservation of residual C-peptide |

— patent US20030235583A1, “Combined use of a modulator of CD3 and a beta cell resting compound” (priority 2002, published 2003)
